The source of these data is US6573275B1, “Bicyclic amines” (Syngenta Limited, priority 1995, dated 2003).

This series concerns peach aphid (Myzus persicae). Put plainly: Insecticidal test against peach aphid, infested Chinese cabbage leaves sprayed. It counts as in vivo. As to conditions: peach aphid (Myzus persicae) on Chinese cabbage leaves, sprayed with 500 ppm composition unless otherwise stated, mortality assessed after 3 days. A digest of the protocol: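 Aphid-infested Chinese cabbage leaves were sprayed with compound at 500 ppm unless otherwise stated, formulated in acetone/ethanol diluted with water containing 0.05% Synperonic NP8. Mortality was assessed after 3 days.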
On to `CC(C)(C)OC(=O)N1C2CCC1CC(C#N)(c1cncc(Cl)c1)C2` (stereo not shown) [Compound 294], for which the “Score (grading of mortality)” value was “A (A indicates 80-100% mortality)”.
In the case of `CON1C2CCC1CC(C#N)(c1cncc(Cl)c1)C2` (stereo not drawn) [Compound 296, exo-3-(5-chloropyrid-3-yl)-endo-3-cyano-8-methoxy-8-azabicyclo[3.2.1]octane], the “Score (grading of mortality)” value is reported as “A (A indicates 80-100% mortality)”.
As for `N#CC1(c2ccnc(Cl)n2)CC2CCC(C1)N2CC(F)(F)F` (stereo not shown) [Compound 297], the “Score (grading of mortality)” value is reported as “A (A indicates 80-100% mortality)”.
Consider `C=COC(=O)N1C2CCC1CC(C#N)(c1cncc(Cl)n1)C2` (stereo not shown) [Compound 298], for which the “Score (grading of mortality)” value was “A (A indicates 80-100% mortality)”.
With `N#CC1(c2cncc(Cl)n2)CC2CCC(C1)N2` (stereo not shown) [Compound 299], the “Score (grading of mortality)” value is recorded as “A (A indicates 80-100% mortality)”.
As for `N#CC1(c2cncc(Cl)n2)CC2CCC(C1)N2Cc1cccc(Cl)c1` (stereo not shown) [Compound 300], the entry is “A (A indicates 80-100% mortality)”.
For the molecule `N#CCN1C2CCC1CC(C#N)(c1cncc(Cl)n1)C2` (stereo not shown) [Compound 301], the “Score (grading of mortality)” value was “A (A indicates 80-100% mortality)”.
As for `CC(c1cccc(Cl)c1)N1C2CCC1CC(C#N)(c1cncc(Cl)c1)C2` (stereo not shown) [Compound 302], the entry is “A (A indicates 80-100% mortality)”; as for `CN1C2CCC1CC(C#N)(c1cncc(C#N)c1)C2` (stereo not shown) [Compound 304], “A (A indicates 80-100% mortality)”.
Turning to `C=COC(=O)N1C2CCC1CC(C#N)(c1cncc(I)c1)C2` (stereo not drawn) [Compound 309, exo-3-(5-iodopyrid-3-yl)-endo-3-cyano-8-(vinyloxycarbonyl)-8-azabicyclo[3.2.1]octane], the “Score (grading of mortality)” value was “A (A indicates 80-100% mortality)”.
